In article PMC6016400 (Journal of medicinal chemistry, 2017):

Key:
[1] = target: T1, hPTHR1 (Homo sapiens, UniProt Q03431); experiment: cAMP induction; assay type: cell-based; settings: Table 1; ratio of cAMP EC50 values, hPTHR1, GP2.3 cells
T1 sequence (Q03431 27-593): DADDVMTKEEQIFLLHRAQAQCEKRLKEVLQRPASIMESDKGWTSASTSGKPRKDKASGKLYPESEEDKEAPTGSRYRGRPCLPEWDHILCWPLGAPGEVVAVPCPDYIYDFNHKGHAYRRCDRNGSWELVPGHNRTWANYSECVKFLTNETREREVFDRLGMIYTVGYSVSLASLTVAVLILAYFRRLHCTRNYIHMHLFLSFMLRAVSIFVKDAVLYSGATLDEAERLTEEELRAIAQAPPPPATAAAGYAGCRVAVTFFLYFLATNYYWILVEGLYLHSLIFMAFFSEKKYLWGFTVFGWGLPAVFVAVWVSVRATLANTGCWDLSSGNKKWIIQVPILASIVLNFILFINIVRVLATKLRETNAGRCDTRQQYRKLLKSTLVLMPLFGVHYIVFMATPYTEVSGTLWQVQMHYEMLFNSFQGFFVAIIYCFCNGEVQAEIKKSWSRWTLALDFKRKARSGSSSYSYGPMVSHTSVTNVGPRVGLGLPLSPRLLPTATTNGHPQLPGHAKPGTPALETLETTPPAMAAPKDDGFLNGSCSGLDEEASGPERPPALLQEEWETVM

[2] = tested on: R0 conformation of the human PTHR1; settings: cited from earlier work
[3] = tested on: CD1 mice; settings: subcutaneous injection; cited from earlier work

## M-PTH(1-34) [Peptide 27]
[1]
  Derivative EC50/PTH(1-34) EC50: 4.2
[2]
  binding to the R0 state of PTHR1, rank in words, earlier studies: binds even more tightly than does 1
[3]
  duration of calcemic effect in mice, earlier studies: long-lasting calcemic effect
